From the supplement of paper PMC10883282
± gives the standard deviation of the averaged measurements.

Legend:
Assay in all cases: relative viability vs DMSO control (72 h) (fraction); higher = more viable cells
RD = test system: RD
Summary of the method: (§1)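 ATPLite readings, expressed as percent growth and averaged over up to triplicate wells, provided relative viability. Before reading, sarcoma cell lines seeded in 384-well plates to reach 80–90% confluence received 2.5 µl of serially diluted compound after 24 h, from source plates of 10 mM to 0.0002 mM. Plates were held 72 h at 37 °C, 5% CO2, with 0.1% DMSO as vehicle and a 5 µM positive control. The data were rescaled to 1 for full and 0 for none.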

KHOS-240S = test system: KHOS-240S
Summary of the method: as §1

MES-SA = test system: MES-SA
Summary of the method: as §1

SW1353 = test system: SW1353
Summary of the method: as §1

SYO-1 = test system: SYO-1
Summary of the method: as §1

CC(C)(O)CNc1nc(Nc2ccnc(C(F)(F)F)c2)nc(-c2cccc(C(F)(F)F)n2)n1 [Enasidenib]
relative viability (RD; 0.00017 µM): 1.11 ± 0.072
relative viability (RD; 0.00051 µM): 1.125 ± 0.0051
relative viability (RD; 0.00152 µM): 1.11 ± 0.044
relative viability (RD; 0.00457 µM): 1.08 ± 0.035
relative viability (RD; 0.01372 µM): 1.1 ± 0.041
relative viability (RD; 0.04115 µM): 1.1 ± 0.062
relative viability (RD; 0.1235 µM): 1.11 ± 0.054
relative viability (RD; 0.3704 µM): 1.08 ± 0.057
relative viability (RD; 1.111 µM): 1.09 ± 0.043
relative viability (RD; 3.333 µM): 1.09 ± 0.067
relative viability (RD; 10 µM): 1.04 ± 0.047
relative viability (KHOS-240S; 0.00017 µM): 1.08 ± 0.017
relative viability (KHOS-240S; 0.00051 µM): 1.06 ± 0.012
relative viability (KHOS-240S; 0.00152 µM): 1.053 ± 0.0022
relative viability (KHOS-240S; 0.00457 µM): 1.06 ± 0.046
relative viability (KHOS-240S; 0.01372 µM): 1.08 ± 0.018
relative viability (KHOS-240S; 0.04115 µM): 1.073 ± 0.0095
relative viability (KHOS-240S; 0.1235 µM): 1.09 ± 0.033
relative viability (KHOS-240S; 0.3704 µM): 1.09 ± 0.042
relative viability (KHOS-240S; 1.111 µM): 1.09 ± 0.02
relative viability (KHOS-240S; 3.333 µM): 1.081 ± 0.0076
relative viability (KHOS-240S; 10 µM): 0.989 ± 0.044
relative viability (MES-SA; 0.00017 µM): 0.911 ± 0.012
relative viability (MES-SA; 0.00051 µM): 0.947 ± 0.03
relative viability (MES-SA; 0.00152 µM): 0.958 ± 0.024
relative viability (MES-SA; 0.00457 µM): 0.956 ± 0.026
relative viability (MES-SA; 0.01372 µM): 0.9539 ± 0.0027
relative viability (MES-SA; 0.04115 µM): 0.932 ± 0.033
relative viability (MES-SA; 0.1235 µM): 0.9612 ± 0.0088
relative viability (MES-SA; 0.3704 µM): 0.945 ± 0.029
relative viability (MES-SA; 1.111 µM): 0.926 ± 0.03
relative viability (MES-SA; 3.333 µM): 0.918 ± 0.0091
relative viability (MES-SA; 10 µM): 0.808 ± 0.024
relative viability (SW1353; 0.00017 µM): 0.997 ± 0.016
relative viability (SW1353; 0.00051 µM): 1.03 ± 0.016
relative viability (SW1353; 0.00152 µM): 0.99 ± 0.031
relative viability (SW1353; 0.00457 µM): 1.02 ± 0.041
relative viability (SW1353; 0.01372 µM): 1.03 ± 0.02
relative viability (SW1353; 0.04115 µM): 1.01 ± 0.0077
relative viability (SW1353; 0.1235 µM): 1.01 ± 0.03
relative viability (SW1353; 0.3704 µM): 1.04 ± 0.02
relative viability (SW1353; 1.111 µM): 0.9847 ± 0.0047
relative viability (SW1353; 3.333 µM): 0.994 ± 0.047
relative viability (SW1353; 10 µM): 0.86 ± 0.042
relative viability (SYO-1; 0.00017 µM): 0.969 ± 0.075
relative viability (SYO-1; 0.00051 µM): 0.959 ± 0.05
relative viability (SYO-1; 0.00152 µM): 0.987 ± 0.067
relative viability (SYO-1; 0.00457 µM): 0.982 ± 0.026
relative viability (SYO-1; 0.01372 µM): 0.973 ± 0.043
relative viability (SYO-1; 0.04115 µM): 0.992 ± 0.066
relative viability (SYO-1; 0.1235 µM): 0.996 ± 0.056
relative viability (SYO-1; 0.3704 µM): 0.979 ± 0.059
relative viability (SYO-1; 1.111 µM): 0.624 ± 0.61
relative viability (SYO-1; 3.333 µM): 0.968 ± 0.096
relative viability (SYO-1; 10 µM): 0.828 ± 0.031

COC(=O)N[C@@H](C)CNc1nccc(-c2cn(C(C)C)nc2-c2cc(Cl)cc(NS(C)(=O)=O)c2F)n1 [Encorafenib]
relative viability (RD; 0.00017 µM): 0.963 ± 0.033
relative viability (RD; 0.00051 µM): 1.01 ± 0.033
relative viability (RD; 0.00152 µM): 1.015 ± 0.0072
relative viability (RD; 0.00457 µM): 1 ± 0.045
relative viability (RD; 0.01372 µM): 1.01 ± 0.025
relative viability (RD; 0.04115 µM): 1.01 ± 0.03
relative viability (RD; 0.1235 µM): 1.01 ± 0.052
relative viability (RD; 0.3704 µM): 0.978 ± 0.066
relative viability (RD; 1.111 µM): 0.807 ± 0.047
relative viability (RD; 3.333 µM): 0.447 ± 0.032
relative viability (RD; 10 µM): 0.45 ± 0.023
relative viability (KHOS-240S; 0.00017 µM): 0.998 ± 0.03
relative viability (KHOS-240S; 0.00051 µM): 0.986 ± 0.051
relative viability (KHOS-240S; 0.00152 µM): 1.01 ± 0.069
relative viability (KHOS-240S; 0.00457 µM): 0.993 ± 0.024
relative viability (KHOS-240S; 0.01372 µM): 0.964 ± 0.016
relative viability (KHOS-240S; 0.04115 µM): 0.981 ± 0.044
relative viability (KHOS-240S; 0.1235 µM): 0.991 ± 0.036
relative viability (KHOS-240S; 0.3704 µM): 0.97 ± 0.017
relative viability (KHOS-240S; 1.111 µM): 0.904 ± 0.028
relative viability (KHOS-240S; 3.333 µM): 0.788 ± 0.027
relative viability (KHOS-240S; 10 µM): 0.732 ± 0.036
relative viability (MES-SA; 0.00017 µM): 0.98 ± 0.021
relative viability (MES-SA; 0.00051 µM): 0.944 ± 0.026
relative viability (MES-SA; 0.00152 µM): 1 ± 0.019
relative viability (MES-SA; 0.00457 µM): 0.985 ± 0.026
relative viability (MES-SA; 0.01372 µM): 0.958 ± 0.027
relative viability (MES-SA; 0.04115 µM): 1.01 ± 0.04
relative viability (MES-SA; 0.1235 µM): 0.998 ± 0.056
relative viability (MES-SA; 0.3704 µM): 0.972 ± 0.057
relative viability (MES-SA; 1.111 µM): 0.714 ± 0.028
relative viability (MES-SA; 3.333 µM): 0.461 ± 0.0064
relative viability (MES-SA; 10 µM): 0.547 ± 0.03
relative viability (SW1353; 0.00017 µM): 1.06 ± 0.013
relative viability (SW1353; 0.00051 µM): 1.09 ± 0.04
relative viability (SW1353; 0.00152 µM): 1.1 ± 0.028
relative viability (SW1353; 0.00457 µM): 1.08 ± 0.014
relative viability (SW1353; 0.01372 µM): 1.086 ± 0.0098
relative viability (SW1353; 0.04115 µM): 1.08 ± 0.024
relative viability (SW1353; 0.1235 µM): 1.07 ± 0.035
relative viability (SW1353; 0.3704 µM): 1.1 ± 0.066
relative viability (SW1353; 1.111 µM): 0.966 ± 0.024
relative viability (SW1353; 3.333 µM): 0.767 ± 0.018
relative viability (SW1353; 10 µM): 0.739 ± 0.023
relative viability (SYO-1; 0.00017 µM): 0.988 ± 0.052
relative viability (SYO-1; 0.00051 µM): 0.992 ± 0.019
relative viability (SYO-1; 0.00152 µM): 0.972 ± 0.019
relative viability (SYO-1; 0.00457 µM): 0.985 ± 0.038
relative viability (SYO-1; 0.01372 µM): 1.003 ± 0.0047
relative viability (SYO-1; 0.04115 µM): 0.997 ± 0.035
relative viability (SYO-1; 0.1235 µM): 1.018 ± 0.0075
relative viability (SYO-1; 0.3704 µM): 1.02 ± 0.03
relative viability (SYO-1; 1.111 µM): 0.988 ± 0.038
relative viability (SYO-1; 3.333 µM): 0.877 ± 0.051
relative viability (SYO-1; 10 µM): 0.818 ± 0.051

CN1CCN(c2ccc(C(=O)Nc3n[nH]c4ccc(Cc5cc(F)cc(F)c5)cc34)c(NC3CCOCC3)c2)CC1 [Entrectinib]
relative viability (RD; 0.00017 µM): 1.08 ± 0.049
relative viability (RD; 0.00051 µM): 1.13 ± 0.026
relative viability (RD; 0.00152 µM): 1.14 ± 0.078
relative viability (RD; 0.00457 µM): 1.13 ± 0.065
relative viability (RD; 0.01372 µM): 1.11 ± 0.068
relative viability (RD; 0.04115 µM): 1.1 ± 0.09
relative viability (RD; 0.1235 µM): 1.11 ± 0.067
relative viability (RD; 0.3704 µM): 1.07 ± 0.052
relative viability (RD; 1.111 µM): 0.934 ± 0.051
relative viability (RD; 3.333 µM): 0.589 ± 0.014
relative viability (RD; 10 µM): 0.0669 ± 0.029
relative viability (KHOS-240S; 0.00017 µM): 1.06 ± 0.035
relative viability (KHOS-240S; 0.00051 µM): 1.061 ± 0.0065
relative viability (KHOS-240S; 0.00152 µM): 1.1 ± 0.08
relative viability (KHOS-240S; 0.00457 µM): 1.08 ± 0.071
relative viability (KHOS-240S; 0.01372 µM): 1.08 ± 0.082
relative viability (KHOS-240S; 0.04115 µM): 1.07 ± 0.058
relative viability (KHOS-240S; 0.1235 µM): 1.08 ± 0.073
relative viability (KHOS-240S; 0.3704 µM): 1 ± 0.066
relative viability (KHOS-240S; 1.111 µM): 0.939 ± 0.089
relative viability (KHOS-240S; 3.333 µM): 0.617 ± 0.063
relative viability (KHOS-240S; 10 µM): 0.0159 ± 0.0044
relative viability (MES-SA; 0.00017 µM): 0.942 ± 0.038
relative viability (MES-SA; 0.00051 µM): 0.942 ± 0.031
relative viability (MES-SA; 0.00152 µM): 0.931 ± 0.049
relative viability (MES-SA; 0.00457 µM): 0.925 ± 0.049
relative viability (MES-SA; 0.01372 µM): 0.899 ± 0.013
relative viability (MES-SA; 0.04115 µM): 0.904 ± 0.033
relative viability (MES-SA; 0.1235 µM): 0.892 ± 0.021
relative viability (MES-SA; 0.3704 µM): 0.893 ± 0.02
relative viability (MES-SA; 1.111 µM): 0.821 ± 0.015
relative viability (MES-SA; 3.333 µM): 0.702 ± 0.021
relative viability (MES-SA; 10 µM): 0.364 ± 0.045
relative viability (SW1353; 0.00017 µM): 1.04 ± 0.011
relative viability (SW1353; 0.00051 µM): 1.05 ± 0.021
relative viability (SW1353; 0.00152 µM): 1.01 ± 0.017
relative viability (SW1353; 0.00457 µM): 1.01 ± 0.015
relative viability (SW1353; 0.01372 µM): 0.976 ± 0.012
relative viability (SW1353; 0.04115 µM): 0.985 ± 0.025
relative viability (SW1353; 0.1235 µM): 0.9886 ± 0.0051
relative viability (SW1353; 0.3704 µM): 0.9517 ± 0.0048
relative viability (SW1353; 1.111 µM): 0.953 ± 0.034
relative viability (SW1353; 3.333 µM): 0.782 ± 0.058
relative viability (SW1353; 10 µM): 0.0075 ± 0.00089
relative viability (SYO-1; 0.00017 µM): 1.03 ± 0.036
relative viability (SYO-1; 0.00051 µM): 0.998 ± 0.031
relative viability (SYO-1; 0.00152 µM): 1.02 ± 0.037
relative viability (SYO-1; 0.00457 µM): 0.953 ± 0.025
relative viability (SYO-1; 0.01372 µM): 0.979 ± 0.022
relative viability (SYO-1; 0.04115 µM): 0.948 ± 0.027
relative viability (SYO-1; 0.1235 µM): 0.925 ± 0.022
relative viability (SYO-1; 0.3704 µM): 0.851 ± 0.018
relative viability (SYO-1; 1.111 µM): 0.765 ± 0.0029
relative viability (SYO-1; 3.333 µM): 0.529 ± 0.025
relative viability (SYO-1; 10 µM): -0.0142 ± 0.0039
